Like-named read-outs stand apart in the source and are kept apart here.
Legend:
β-glucosidase = β-glucosidase inhibitory assay in 96-well plates (p-NPG, absorbance 405 nm); type: biochemical; details: concentration of 1 mM; end concentration of 100 µM in each well
Procedure: An already established method was employed to perform α- and β-glucosidase inhibitory assays in 96-well plates ([Kazmi et al., 2017]). In this assay, phosphate buffer (0.07 M pH 6.8) was used to prepare 2.5 U/mL of α-glucosidase, 2.0 U/mL of β-glucosidase, and substrate 4-nitrophenyl-β-D-glucopyranoside (p-NPG) (10 mM) solutions. In addition, 1 mM solution of each test compound was prepared in 10% DMSO to achieve an end concentration of 100 µM in each well. Initially, 10 µL of the respective enzyme was incubated with 10 µL of test compounds for 5 min at 37 °C. Subsequently, 10 µL of p-NPG was added in each well followed by an incubation period of 30 min at 37 °C before adding 80 µL of Na2CO3 (200 mM) as a stop solution to each well. The absorbance was measured at 405 nm, and the percentage inhibition for each of the test compounds was determined by the following equation.
Percentage inhibition = 100–[Slope of test compound/Slope of enzyme control] × 100.
Acarbose was used as a standard drug for evaluating the efficacy of test compounds against α- and β-glucosidase. The inhibitory concentration 50 (IC50) for each of the test compound was determined by GraphPad prism version 10.0.

α-glucosidase = α-glucosidase (Saccharomyces cerevisiae, UniProt P53341); assay: biochemical; type: biochemical
α-glucosidase, sequence (P53341 whole entry): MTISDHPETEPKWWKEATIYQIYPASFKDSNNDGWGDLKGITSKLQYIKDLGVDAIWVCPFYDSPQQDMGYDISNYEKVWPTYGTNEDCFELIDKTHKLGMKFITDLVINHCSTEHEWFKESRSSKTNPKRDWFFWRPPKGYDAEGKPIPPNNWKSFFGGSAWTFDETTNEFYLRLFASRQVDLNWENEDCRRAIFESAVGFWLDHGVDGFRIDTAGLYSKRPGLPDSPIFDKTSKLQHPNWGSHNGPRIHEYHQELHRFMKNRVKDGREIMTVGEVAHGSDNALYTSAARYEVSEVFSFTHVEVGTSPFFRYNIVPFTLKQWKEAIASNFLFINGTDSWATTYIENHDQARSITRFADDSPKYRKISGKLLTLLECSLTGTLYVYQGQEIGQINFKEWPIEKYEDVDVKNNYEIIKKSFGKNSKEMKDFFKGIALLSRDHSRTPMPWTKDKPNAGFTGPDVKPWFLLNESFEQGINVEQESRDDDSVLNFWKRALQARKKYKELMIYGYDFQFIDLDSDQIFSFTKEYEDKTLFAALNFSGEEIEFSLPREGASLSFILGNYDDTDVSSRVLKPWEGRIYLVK

[1] = read-out: α-glucosidase inhibition IC50 ± SEM

Row | IC50 (α-glucosidase; [1]) [µM] | Structure (SMILES) | β-glucosidase inhibition %age inhibition (β-glucosidase) [%] | IC50 (α-glucosidase) [µM] | melting point [°C] | reduction in activity on switching chlorine from para- to meta-position (α-glucosidase; relative to 5a) [%] | potency relative to acarbose (times/fold more potent) (α-glucosidase)
1 | – | COc1ccc(C(=O)n2nc(C)c(/N=N/c3ccc(S(N)(=O)=O)cc3)c2C)cc1OC [Compound 5d, (E)-4-((1-(3,4-Dimethoxybenzoyl)-3,5-dimethyl-1H-pyrazol-4-yl)diazenyl)benzenesulfonamide] | 18.5 | 4.53 ± 0.12 | 226 to 228 | – | –
2 | – | Cc1n[nH]c(C)c1/N=N/c1ccc(S(N)(=O)=O)cc1 [Compound 5k, (E)-4-((3,5-Dimethyl-1H-pyrazol-4-yl)diazenyl)benzenesulfonamide] | 25.1 | 28.3 ± 1.45 | 188 to 190 | – | –
3 | 3.29 ± 0.09 | COc1ccc(C(=O)n2nc(C)c(/N=N/c3ccc(S(N)(=O)=O)cc3)c2C)cc1 [Compound 5c, (E)-4-((1-(4-Methoxybenzoyl)-3,5-dimethyl-1H-pyrazol-4-yl)diazenyl)benzenesulfonamide] | 12.9 | – | 202 to 205 | – | –
4 | – | Cc1ccccc1C(=O)n1nc(C)c(/N=N/c2ccc(S(N)(=O)=O)cc2)c1C [Compound 5g, (E)-4-((3,5-Dimethyl-1-(2-methylbenzoyl)-1H-pyrazol-4-yl)diazenyl)benzenesulfonamide] | 21.0 | 3.47 ± 0.43 | – | – | –
5 | 2.77 ± 0.24 | Cc1nn(C(=O)c2cccc([N+](=O)[O-])c2)c(C)c1/N=N/c1ccc(S(N)(=O)=O)cc1 [Compound 5f, (E)-4-((3,5-Dimethyl-1-(3-nitrobenzoyl)-1H-pyrazol-4-yl)diazenyl)benzenesulfonamide] | 27.4 | – | – | – | –
6 | – | Cc1nn(C(=O)c2cccc(Cl)c2)c(C)c1/N=N/c1ccc(S(N)(=O)=O)cc1 [Compound 5b, (E)-4-((1-(3-Chlorobenzoyl)-3,5-dimethyl-1H-pyrazol-4-yl)diazenyl)benzenesulfonamide] | 32.1 | 2.22 ± 0.11 | – | 50 | –
7 | – | COc1cccc(C(=O)n2nc(C)c(/N=N/c3ccc(S(N)(=O)=O)cc3)c2C)c1 [Compound 5j, (E)-4-((1-(3-Methoxybenzoyl)-3,5-dimethyl-1H-pyrazol-4-yl)diazenyl)benzenesulfonamide] | 7.55 | 17.9 ± 1.16 | – | – | –
8 | – | Cc1nn(C(=O)c2ccc(Cl)cc2)c(C)c1/N=N/c1ccc(S(N)(=O)=O)cc1 [Compound 5a, (E)-4-((1-(4-Chlorobenzoyl)-3,5-dimethyl-1H-pyrazol-4-yl)diazenyl)benzenesulfonamide] | 34.3 | 1.13 ± 0.06 | – | – | –
9 | – | C[C@H]1O[C@H](O[C@H]2[C@H](O)[C@@H](O)[C@@H](O[C@H]3[C@H](O)[C@@H](O)C(O)O[C@@H]3CO)O[C@@H]2CO)[C@H](O)[C@@H](O)[C@@H]1N[C@H]1C=C(CO)[C@@H](O)[C@H](O)[C@H]1O (stereo partly shown) [Acarbose, reference compound] | 63.7 | – | – | – | –
10 | – | Cc1nn(C(=O)c2ccc(Br)cc2)c(C)c1/N=N/c1ccc(S(N)(=O)=O)cc1 [Compound 5i, (E)-4-((1-(4-Bromobenzoyl)-3,5-dimethyl-1H-pyrazol-4-yl)diazenyl)benzenesulfonamide] | 11.2 | 19.1 ± 1.07 | 235 to 237 | – | –
11 | 9.22 ± 0.45 | Cc1ccc(C(=O)n2nc(C)c(/N=N/c3ccc(S(N)(=O)=O)cc3)c2C)cc1 [Compound 5h, (E)-4-((3,5-Dimethyl-1-(4-methylbenzoyl)-1H-pyrazol-4-yl)diazenyl)benzenesulfonamide] | 14.6 | – | 218 to 220 | – | –

Row | Structure (SMILES) | IC50 (α-glucosidase; [1]) [µM] | β-glucosidase inhibition %age inhibition (β-glucosidase) [%] | IC50 (α-glucosidase) [µM] | melting point [°C] | reduction in activity on switching chlorine from para- to meta-position (α-glucosidase; relative to 5a) [%] | potency relative to acarbose (times/fold more potent) (α-glucosidase)
12 | Cc1nn(C(=O)c2ccc([N+](=O)[O-])cc2)c(C)c1/N=N/c1ccc(S(N)(=O)=O)cc1 [Compound 5e, (E)-4-((3,5-Dimethyl-1-(4-nitrobenzoyl)-1H-pyrazol-4-yl)diazenyl)benzenesulfonamide] | 4.11 ± 0.19 | 11.7 | – | 231 to 233 | – | eight

Reference: article PMC11061460, “Acyl pyrazole sulfonamides as new antidiabetic agents: synthesis, glucosidase inhibition studies, and molecular docking analysis” (Frontiers in Chemistry, 2024)
